Assay results from ChEMBL document CHEMBL5143509, “An efficient strategy for digging protein-protein interactions for rational drug design - A case study with HIF-1α/VHL” (Eur J Med Chem, 2022).
Active and inactive are the calls of the source. The rule behind the calls is not given here.

Legend:
[1] = tested on: U2OS; assay: Upregulation of HIF-1 alpha in human U2OS cells at 100 uM incubated for 24 hrs by Western blot analysis; assay type: functional, cell-based
[2] = tested on: HeLa; assay: Stabilization of HIF-1 alpha OH in human HeLa cells at 100 uM incubated for 24 hrs by Western blot analysis; assay type: cell-based
[3] = tested on: HeLa; assay: Cytotoxicity against human HeLa cells assessed as effect on cell viability at 100 uM measured after 24 hrs by crystal violet staining based assay; assay type: toxicity
[4] = Octanol/water partition coefficient, logD of the compound at pH 7.4; assay type: physicochemical
[5] = target: Hypoxia-inducible factor 1-alpha (Homo sapiens) (UniProt Q16665); assay: Stabilization of HIF-1 alpha in human HeLa cells at 100 uM incubated for 24 hrs by Western blot analysis; assay type: cell-based
Sequence of Hypoxia-inducible factor 1-alpha (Homo sapiens) (Q16665 whole entry, looked up): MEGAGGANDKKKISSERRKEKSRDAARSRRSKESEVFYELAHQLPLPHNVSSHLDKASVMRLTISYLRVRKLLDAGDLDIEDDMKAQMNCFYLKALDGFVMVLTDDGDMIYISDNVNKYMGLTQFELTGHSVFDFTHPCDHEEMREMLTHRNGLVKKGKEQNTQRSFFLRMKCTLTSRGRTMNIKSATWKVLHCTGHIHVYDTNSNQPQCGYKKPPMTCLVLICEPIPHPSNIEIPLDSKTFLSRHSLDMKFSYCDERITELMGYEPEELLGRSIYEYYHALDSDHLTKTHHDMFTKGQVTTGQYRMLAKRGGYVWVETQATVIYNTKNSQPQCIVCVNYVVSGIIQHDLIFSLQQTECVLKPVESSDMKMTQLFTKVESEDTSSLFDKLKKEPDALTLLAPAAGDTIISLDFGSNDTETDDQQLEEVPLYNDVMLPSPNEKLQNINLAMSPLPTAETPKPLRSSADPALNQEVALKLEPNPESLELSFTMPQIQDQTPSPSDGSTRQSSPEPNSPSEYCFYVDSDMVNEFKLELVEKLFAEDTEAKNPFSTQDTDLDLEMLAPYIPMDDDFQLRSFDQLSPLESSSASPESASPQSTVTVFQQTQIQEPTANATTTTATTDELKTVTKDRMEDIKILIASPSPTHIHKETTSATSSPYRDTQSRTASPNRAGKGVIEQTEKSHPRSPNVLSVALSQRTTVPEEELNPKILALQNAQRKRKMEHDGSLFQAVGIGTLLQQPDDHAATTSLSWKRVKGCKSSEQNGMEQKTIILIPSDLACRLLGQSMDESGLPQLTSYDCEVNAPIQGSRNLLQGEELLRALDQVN

[6] = Binding affinity to VBC (unknown origin) using FAM-DEALA-Hyp-YIPD as substrate by fluorescence polarization assay; design: species or system Homo sapiens
[7] = tested on: 786-0; assay: Cytotoxicity against human 786-0 cells assessed as effect on cell viability at 100 uM measured after 24 hrs by MTT assay; assay type: toxicity, cell-based; details: 786-0, 24 h
[8] = Octanol-water partition coefficient, logP of the compound; assay type: physicochemical
[9] = tested on: U2OS; assay: Cytotoxicity against human U2OS cells assessed as effect on cell viability at 100 uM measured after 24 hrs by MTT assay; assay type: toxicity, cell-based
[10] = tested on: HeLa; assay: Upregulation of HIF-1 alpha in human HeLa cells at 100 uM incubated for 24 hrs by Western blot analysis; assay type: functional, cell-based

Row | Compound | Activity [1] | Activity [2] | Activity [3] | logD ([4]; read-out: logD) | Activity [5] | IC50 [6] | Activity [7] | logP ([8]; read-out: logP) | Activity [9] | Activity [10] | logD [4] | logP [8]
1 | CC(=O)N[C@H](C(=O)N1C[C@H](O)C[C@H]1C(=O)N[C@@H](CCc1ccc(O)cc1)c1ccc(-c2scnc2C)cc1)C(C)(C)C | Active | 0.75 fold | Non-Toxic | 3.08 | 1.79 fold | 0.193 µM | Non-Toxic | 3.08 |  |  |  | 
2 | CC(=O)N[C@H](C(=O)N1C[C@H](O)C[C@H]1C(=O)N[C@@H](CCC(C)(C)C)c1ccc(-c2scnc2C)cc1)C(C)(C)C |  | 1.21 fold | Non-Toxic | 3.21 | 2.22 fold | 0.166 µM | Non-Toxic | 3.21 |  |  |  | 
3 | CC(=O)N[C@H](C(=O)N1C[C@H](O)C[C@H]1C(=O)N[C@@H](c1ccccc1)c1ccc(-c2scnc2C)cc1)C(C)(C)C |  | 1.01 fold | Non-Toxic | 2.55 | 2.21 fold | 0.23 µM | Non-Toxic | 2.55 |  |  |  | 
4 | CC(=O)N[C@H](C(=O)N1C[C@H](O)C[C@H]1C(=O)NCc1ccc(-c2scnc2C)cc1)C(C)(C)C |  | 1 fold | Non-Toxic | 0.94 | 1 fold | 0.204 µM |  | 0.94 |  |  |  | 
5 | CCCC[C@H](NC(=O)[C@@H]1C[C@@H](O)CN1C(=O)[C@@H](NC(C)=O)C(C)(C)C)c1ccc(-c2scnc2C)cc1 |  | 1.4 fold | Non-Toxic | 2.75 | 1.4 fold | 0.35 µM | Non-Toxic | 2.75 | Non-Toxic |  |  | 
6 | CC(=O)N[C@H](C(=O)N1C[C@H](O)C[C@H]1C(=O)N[C@@H](CCC(=O)O)c1ccc(-c2scnc2C)cc1)C(C)(C)C | Active | 0.99 fold | Non-Toxic | -0.44 | 1.91 fold | 0.063 µM | Non-Toxic | 1.02 | Non-Toxic |  |  | 
7 | O=C(O)CNC(=O)c1c(O)c2ccccc2n(Cc2ccccc2)c1=O | Active |  |  |  |  |  |  |  |  | Active |  | 
8 | CCOC(=O)CC[C@H](NC(=O)[C@@H]1C[C@@H](O)CN1C(=O)[C@@H](NC(C)=O)C(C)(C)C)c1ccc(-c2scnc2C)cc1 | Active | 1.31 fold | Non-Toxic | 1.59 | 1.64 fold | 0.081 µM | Non-Toxic | 1.59 | Non-Toxic |  |  | 
9 | CC(=O)N[C@H](C(=O)N1C[C@H](O)C[C@H]1C(=O)N[C@@H](CCc1ccncc1)c1ccc(-c2scnc2C)cc1)C(C)(C)C |  | 2.25 fold | Non-Toxic |  | 0.99 fold | 0.223 µM | Non-Toxic |  | Non-Toxic |  | 2.7 | 2.18
10 | CC(=O)N[C@H](C(=O)N1C[C@H](O)C[C@H]1C(=O)N[C@@H](CCc1ccc(Br)cc1)c1ccc(-c2scnc2C)cc1)C(C)(C)C | Active | 0.91 fold | Non-Toxic | 4.08 | 1.88 fold | 0.189 µM | Non-Toxic | 4.08 |  |  |  | 
